Assay results taken from BindingDB's records for doi:10.1016/j.bmcl.2003.08.064 (Abbott Laboratories, 2003).

Columns and labels:
[1] = target: T1, Tyrosine-protein phosphatase non-receptor type 2 (Homo sapiens, UniProt P17706); test: PTP1B and TCPTP Inhibition Assay; details: pH 7.5; 22 °C
T1 sequence (P17706 whole entry): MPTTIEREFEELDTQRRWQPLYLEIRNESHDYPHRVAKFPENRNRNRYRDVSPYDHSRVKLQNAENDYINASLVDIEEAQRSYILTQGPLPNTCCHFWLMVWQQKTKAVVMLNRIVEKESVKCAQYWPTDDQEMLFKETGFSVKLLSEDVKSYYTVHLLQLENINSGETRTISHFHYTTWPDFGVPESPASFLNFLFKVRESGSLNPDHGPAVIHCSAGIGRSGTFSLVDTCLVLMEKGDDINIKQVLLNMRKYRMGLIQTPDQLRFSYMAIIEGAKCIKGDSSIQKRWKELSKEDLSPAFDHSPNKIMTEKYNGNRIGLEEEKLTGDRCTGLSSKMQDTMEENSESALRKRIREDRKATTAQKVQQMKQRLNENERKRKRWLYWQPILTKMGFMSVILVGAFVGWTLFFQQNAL
Protocol: (§1) For each concentration of test compound or DMSO control, the initial rates were used to fit the rectangular hyperbola of Michaelis-Menten by nonlinear regression analysis. The ratio of the apparent Km/Vmax vs inhibitor concentration was plotted, and the Ki was calculated by linear regression to be the negative X-intercept.

[2] = target: T2, Tyrosine-protein phosphatase non-receptor type 1 [1-298] (Homo sapiens, UniProt P18031); test: PTP1B and TCPTP Inhibition Assay; details: pH 7.5; 22 °C
T2 construct: 1-298
T2 sequence (P18031 whole entry): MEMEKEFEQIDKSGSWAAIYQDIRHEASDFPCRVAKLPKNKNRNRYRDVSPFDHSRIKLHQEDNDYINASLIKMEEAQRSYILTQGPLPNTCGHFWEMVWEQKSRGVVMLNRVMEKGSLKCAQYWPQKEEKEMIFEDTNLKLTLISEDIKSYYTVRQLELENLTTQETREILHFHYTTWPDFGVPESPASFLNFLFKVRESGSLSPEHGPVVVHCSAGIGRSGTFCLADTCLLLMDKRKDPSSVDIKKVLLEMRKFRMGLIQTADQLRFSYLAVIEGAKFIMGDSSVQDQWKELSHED
Protocol: as §1

| Structure (SMILES) | Ki [1] | Ki [2] |
| --- | --- | --- |
| CCc1cc(CC(NC(C)=O)C(=O)NCCCCOc2cccc(O)c2C(=O)OC)ccc1N(C(=O)C(=O)O)c1ccccc1C(=O)O (centres undefined) | 65 µM |  |
| COC(=O)c1c(O)cccc1OCCCCNC(=O)[C@H](Cc1ccc(OCC(=O)O)cc1)NC(=O)OC(C)(C)C | > 200 µM |  |
| COC(=O)c1c(O)cccc1OCCCCNC(=O)[C@H](Cc1ccc(OCC(=O)O)c(O)c1)NC(C)=O (racemic) [2-{4-[2-acetamido-2-({4-[3-hydroxy-2-(methoxycarbonyl)phenoxy]butyl}carbamoyl)ethyl]-2-hydroxyphenoxy}acetic acid] | 182 µM |  |
| COC(=O)c1c(O)cccc1OCCCCNC(=O)[C@H](Cc1ccc(C=CC(=O)O)cc1)NC(=O)OC(C)(C)C [(2Z)-3-{4-[(2S)-2-{[(tert-butoxy)carbonyl]amino}-2-({4-[3-hydroxy-2-(methoxycarbonyl)phenoxy]butyl}carbamoyl)ethyl]phenyl}prop-2-enoic acid] |  | > 200 µM |
